Like-named read-outs stand apart in the source and are kept apart here.
Molecular target: T1, α1A-ARs (Homo sapiens, UniProt P35348)
T1 sequence (P35348 1-466): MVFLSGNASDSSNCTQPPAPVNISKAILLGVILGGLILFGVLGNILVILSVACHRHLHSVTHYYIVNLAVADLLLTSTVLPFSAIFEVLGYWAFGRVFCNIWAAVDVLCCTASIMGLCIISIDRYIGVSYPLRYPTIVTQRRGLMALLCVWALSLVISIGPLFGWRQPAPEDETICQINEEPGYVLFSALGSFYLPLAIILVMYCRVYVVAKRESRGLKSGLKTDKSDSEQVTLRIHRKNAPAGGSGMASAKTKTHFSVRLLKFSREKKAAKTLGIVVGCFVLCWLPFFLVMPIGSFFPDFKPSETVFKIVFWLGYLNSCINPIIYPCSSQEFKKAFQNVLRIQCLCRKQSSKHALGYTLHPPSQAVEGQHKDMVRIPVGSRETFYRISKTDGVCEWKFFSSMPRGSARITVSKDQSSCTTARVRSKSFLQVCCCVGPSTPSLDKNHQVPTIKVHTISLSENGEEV
Test: Calcium flux assay (Calcium 6 dye) in cells expressing an α1-AR
Format: cell-based
Details: for Emax: read-out: Average Emax (% epi); for EC50: read-out: Average pEC50 (converted)
Excerpt: Calcium flux experimental design: alpha-1 adrenergic receptors (α1-ARs) couple to Gq proteins, which results in downstream activation of phospholipase C and release of calcium from intracellular stores. Intracellular calcium increase upon α1-AR activation can be detected by Calcium 6 dye.
Cell preparation: cells expressing an α1-AR were washed in warmed phosphate-buffered saline to remove medium and harvested using versene (Caisson Labs, catalog #EDL01).
Media was removed from cells by tapping plates upside-down on absorbent wipes, followed by 15 second upside-down 50×g centrifugation, again on absorbent wipes. 12 μL cell dye solution was added to cells using a reagent dispenser (Integra viaFILL) and cells were incubated for 90 minutes at 37° C., 5% CO2.
Compound preparation: candidate alpha-adrenergic compounds, dissolved to 10 mM in DMSO, were diluted in assay buffer (HBSS/HEPES containing 2 mM CaCl2) and 2 mM probenecid sodium salt). […] On all assay plates, vehicle (DMSO) and positive control (10 μM epinephrine) conditions were included on the plate, as well as a dose-response curve of epinephrine. […] 384 well compound plates were centrifuged briefly at 250×g, sealed (Axygen PCR-SP) and incubated at 37° C. until the 90 minute cell dye incubation was complete.
Calcium 6 stained cells and 384 well compound plates were loaded onto the Flexstation and incubated on the machine for 5 minutes before initiating the assay.
For each assay well, baseline Calcium 6 fluorescence was detected for 18 seconds prior to 12 μL compound addition at 12 μL per second. Changes in Calcium 6 fluorescence were detected for a further 22 seconds, for a total read time of 40 seconds. All detection was performed with medium gain sensitivity, bottom read, with 6 flashes per read.
Data analysis: for calcium flux, analysis of maximum change from baseline over the 40-second read time was determined using Softmax Pro and data was exported as raw text files. Potency estimates (EC50) were derived from dose response curves (maximum change from baseline versus the log concentration of test compound) fit by four-parameter nonlinear regression using Graphpad Prism. Efficacy was determined by comparing the magnitude of the test compound signal window (fitted curve max−min) with the signal window of the full agonist control, epinephrine. […] All experiments were repeated a minimum of three times, with the average (mean) potency and maximum effect relative to the within-plate full agonist dose-response comparator reported.

[1] = α1A-AR calcium flux, mean of at least three experiments
[2] = α1A-AR calcium flux, relative to full agonist epinephrine, mean of at least three experiments

| Compound | Emax [%] | EC50 [1] [nM] | Emax [2] [%] |
| --- | --- | --- | --- |
| Clc1cccc2c(C3CC3)cn(CC3=NCCN3)c12 [Compound 3] | 21 to 60 | < 9.77 |  |
| Clc1cn(-c2cn[nH]c2)c2cc(CC3=NCCN3)ccc12 [Compound 4] |  | > 1000 | < 20 |
| Cc1cn(CC2=NCCN2)c2c(Cl)ccc(C(C)C)c12 [Compound 5] | > 61 | 10 to 977 |  |
| COc1ccc(C(C)C)c2ccn(CC3=NCCN3)c12 [Compound 7] | > 61 | 10 to 977 |  |
| Fc1cc(Cl)c2c(c1)c(C1CC1)cn2CC1=NCCN1 [Compound 8] | < 20 | 10 to 977 |  |
| CC(C)c1ccc(Cl)c2c1c(S(C)(=O)=O)cn2CC1=NCCN1 [Compound 9] |  | > 1000 | < 20 |
| Cc1cc2c(C(C)C)ccc(Cl)c2n1CC1=NCCN1 [Compound 10] | > 61 | 10 to 977 |  |
| Fc1cc(F)c2c(c1)c(C1CC1)cn2CC1=NCCN1 [Compound 11] | > 61 | < 9.77 |  |
| Fc1ccc2c(C3CC3)cn(CC3=NCCN3)c2c1Cl [Compound 12] | 21 to 60 | < 9.77 |  |
| Clc1cccc2ccn(CC3=NCCN3)c12 [Compound 13] | 21 to 60 | 10 to 977 |  |
| Clc1cccc2c(-c3cccnc3)nn(CC3=NCCN3)c12 [Compound 14] |  | > 1000 | < 20 |
| Clc1cccc2cnn(CC3=NCCN3)c12 [Compound 15] | < 20 | > 1000 |  |
| CC(C)(C)c1nn(CC2=NCCN2)c2c(Cl)cccc12 [Compound 16] | < 20 | > 1000 |  |
| Cc1cn(CC2=NCCN2)c2c(Cl)cccc12 [Compound 17] | > 61 | < 9.77 |  |
| N#Cc1cn(CC2=NCCN2)c2c(Cl)cccc12 [Compound 18] | > 61 | 10 to 977 |  |
| Cc1cc2cccc(Cl)c2n1CC1=NCCN1 [Compound 19] | < 20 | > 1000 |  |
| Clc1nn(CC2=NCCN2)c2c(Cl)cccc12 [Compound 20] | > 61 | 10 to 977 |  |
| Fc1cc(Cl)c2c(c1)c(Cl)nn2CC1=NCCN1 [Compound 23] | > 61 | 10 to 977 |  |
| Fc1ccc2c(Cl)nn(CC3=NCCN3)c2c1Cl [Compound 24] | > 61 | 10 to 977 |  |
| FC(F)(F)c1nn(CC2=NCCN2)c2c(Cl)cccc12 [Compound 25] | 21 to 60 | 10 to 977 |  |
| Fc1cccc2c(Cl)nn(CC3=NCCN3)c12 [Compound 26] | 21 to 60 | 10 to 977 |  |
| FC(F)(F)c1cccc2c(Cl)nn(CC3=NCCN3)c12 [Compound 27] | > 61 | 10 to 977 |  |

| Compound | Emax [%] | EC50 [1] [nM] | Emax [2] [%] |
| --- | --- | --- | --- |
| Cc1ccnc2c(Cl)nn(CC3=NCCN3)c12 [Compound 30] | > 61 | 10 to 977 |  |
| Clc1ccc2c(c1)c(Cl)nn2CC1=NCCN1 [Compound 31] | 21 to 60 | > 1000 |  |
| Clc1ccc2c(Cl)nn(CC3=NCCN3)c2c1 [Compound 32] | > 61 | 10 to 977 |  |
| Clc1nn(CC2=NCCN2)c2c(-n3cccc3)cccc12 [Compound 33] |  | 10 to 977 | > 61 |
| Clc1nn(CC2=NCCN2)c2c(-c3ccccc3)cccc12 [Compound 34] |  | 10 to 977 | 21 to 60 |
| Clc1nn(CC2=NCCN2)c2c(-n3cccn3)cccc12 [Compound 36] |  | 10 to 977 | 21 to 60 |
| FC(F)(F)Oc1cccc2c(Cl)nn(CC3=NCCN3)c12 [Compound 37] |  | 10 to 977 | > 61 |
| CC(C)Oc1cccc2c(Cl)nn(CC3=NCCN3)c12 [Compound 38] | 21 to 60 | > 1000 |  |
| CC(F)(F)c1cccc2c(Cl)nn(CC3=NCCN3)c12 [Compound 39] | 21 to 60 | 10 to 977 |  |
| CCc1cccc2c(Cl)nn(CC3=NCCN3)c12 [Compound 40] | > 61 | 10 to 977 |  |
| Clc1cccc2c(-c3ccccc3)nn(CC3=NCCN3)c12 [Compound 42] |  | > 1000 | 21 to 60 |
| FC(F)c1cccc2c(Cl)nn(CC3=NCCN3)c12 [Compound 43] | < 20 | > 1000 |  |
| Clc1cccc2c1c(Cl)nn2CC1=NCCN1 [Compound 45] | < 20 | > 1000 |  |
| Cc1cc(Cl)cc2c(Cl)nn(CC3=NCCN3)c12 [Compound 46] | > 61 | 10 to 977 |  |
| CC(C)c1cccc2c(Cl)nn(CC3=NCCN3)c12 [Compound 47] | > 61 | 10 to 977 |  |
| Clc1nn(CC2=NCCN2)c2c(-c3ccccn3)cccc12 [Compound 48] |  | 10 to 977 | 21 to 60 |
| Clc1cccc2c(-c3ccncc3)nn(CC3=NCCN3)c12 [Compound 49] |  | 10 to 977 | 21 to 60 |
| Cc1cc(F)cc2c(Cl)nn(CC3=NCCN3)c12 [Compound 50] | < 20 | > 1000 |  |
| Clc1cccc2c(-c3ccccn3)nn(CC3=NCCN3)c12 [Compound 51] |  | 10 to 977 | 21 to 60 |
| Clc1nn(CC2=NCCN2)c2c(-c3cnccn3)cccc12 [Compound 52] |  | > 1000 | < 20 |
| FC(F)(F)Cc1cccc2c(Cl)nn(CC3=NCCN3)c12 [Compound 53] |  | > 1000 | 21 to 60 |
| Clc1cccc2c(C3=CCOCC3)nn(CC3=NCCN3)c12 [Compound 54] |  | > 1000 | 21 to 60 |

| Compound | Emax [%] | EC50 [1] [nM] | Emax [2] [%] |
| --- | --- | --- | --- |
| Clc1cccc2c(-c3ncco3)nn(CC3=NCCN3)c12 [Compound 55] |  | > 1000 | < 20 |
| Clc1cccc2c(N3CCCC3)nn(CC3=NCCN3)c12 [Compound 56] |  | > 1000 | < 20 |
| Clc1cccc2c(-n3cccc3)nn(CC3=NCCN3)c12 [Compound 58] |  | 10 to 977 | > 61 |
| Clc1nn(CC2=NCCN2)c2c(-c3ccon3)cccc12 [Compound 59] |  | > 1000 | < 20 |
| Clc1cccc2c(-n3cccn3)nn(CC3=NCCN3)c12 [Compound 60] |  | > 1000 | > 61 |
| Cc1cccc2c(C(F)(F)F)nn(CC3=NCCN3)c12 [Compound 61] | < 20 | > 1000 |  |
| Cc1cccc2c(C(C)(F)F)nn(CC3=NCCN3)c12 [Compound 62] | > 61 | 10 to 977 |  |
| Clc1cccc2c(-c3ccon3)nn(CC3=NCCN3)c12 [Compound 63] |  | 10 to 977 | > 61 |
| FC(F)(F)c1cc(Cl)cc2c(Cl)nn(CC3=NCCN3)c12 [Compound 64] |  | > 1000 | < 20 |
| Fc1cc(C(F)(F)F)c2c(c1)c(Cl)nn2CC1=NCCN1 [Compound 65] |  | 10 to 977 | > 61 |
| Cc1cc(Cl)cc2c(N3CCCC3)nn(CC3=NCCN3)c12 [Compound 66] |  | 10 to 977 | 21 to 60 |
| Clc1nn(CC2=NCCN2)c2c(N3CCCC3)cccc12 [Compound 67] |  | > 1000 | 21 to 60 |
| Cc1cccc2c(N3CCCCC3)nn(CC3=NCCN3)c12 [Compound 68] |  | > 1000 | < 20 |
| Cc1cc(Cl)cc2c(N3CCCCC3)nn(CC3=NCCN3)c12 [Compound 69] |  | > 1000 | < 20 |
| Clc1nn(CC2=NCCN2)c2c(N3CCCCC3)cccc12 [Compound 70] |  | 10 to 977 | 21 to 60 |
| FC(F)(F)c1cccc2c(N3CCCC3)nn(CC3=NCCN3)c12 [Compound 71] |  | > 1000 | < 20 |
| CC(F)(F)c1cc(Cl)cc2c(Cl)nn(CC3=NCCN3)c12 [Compound 72] |  | 10 to 977 | > 61 |
| Cc1cc(C(F)(F)F)cc2c(Cl)nn(CC3=NCCN3)c12 [Compound 73] |  | 10 to 977 | > 61 |
| CC(F)(F)c1cccc2c(N3CCCC3)nn(CC3=NCCN3)c12 [Compound 74] |  | > 1000 | 21 to 60 |
| CC(F)(F)c1cc(F)cc2c(Cl)nn(CC3=NCCN3)c12 [Compound 75] |  | 10 to 977 | 21 to 60 |
| Cc1cc(F)cc2c(N3CCCC3)nn(CC3=NCCN3)c12 [Compound 77] |  | 10 to 977 | 21 to 60 |
